# From paper PMC4932537, “Search for Potent and Selective Aurora A Inhibitors Based on General Ser/Thr Kinase Pharmacophore Model” (Pharmaceuticals, 2016)
# How the values were obtained:
# CYP3A4 = CYP3A4 (Homo sapiens, UniProt P08684); experiment: CYP3A4 inhibition; assay type: in vitro ADME; settings: Mean ± SEM
# [1] = tested on: PC3 (prostate adenocarcinoma); experiment: MTT cytotoxicity, PC3; assay type: cell-based; settings: 72 h
# Text: (§1) All cells lines were purchased in ATCC (Manassas, VA, USA), except for human primary fibroblasts (HFB), which were a generous gift from Dashinimaev E.B. (Koltsov Institute of Developmental Biology). H1299 (lung adenocarcinoma), H23 (lung adenocarcinoma), Colo320 (colon carcinoma), RS4;11 (acute lymphoblastic leukemia), PC3 (prostate adenocarcinoma) and HL-60 (acute promyelocytic leukemia) were cultivated in RPMI-1640 medium, with addition of 10% fetal calf serum (HyClone, South Logan, Utah, USA) and 2 mM L-Glutamine at 37 °C, 5% CО2. MDA-MB-453 (mammary adenocarcinoma), A549 (lung adenocarcinoma), HCT-116 (colon carcinoma), A431 (epidermoid carcinoma), MDA-MB-231 (mammary adenocarcinoma), BxPC3 (pancreatic adenocarcinoma), MEF (mouse embryonic fibroblasts, SV-40 immortalized), MEF Bax^−/−/Bak^−/− knockout cells (mouse embryonic fibroblasts, SV-40 immortalized, resistant to apoptosis) were cultivated in DMEM medium, with addition of 10% fetal calf serum (HyClone) and 2 mM L-Glutamine at 37 °C, 5% CО2.
# (§2) Cells were seeded in 96-well plates (Corning, NY, USA): 5000 cells per well for adhesive cultures and cells, 25,000 cells per well for suspension cultures. Analyzed substances were added in 0.1–50 μM concentration range, with 2 × dilutions, and incubated for 72 h at 37 °C, 5% CО2. After incubation 20 uL of 5 mg/mL of water solution of 3-(4,5-dimethylthiazol-2-yl)-2,5-diphenyltetrazolium bromide (MTT, PANEKO, Moscow, Russia) was added to the cells and they were incubated for additional 4 h. After the incubation the medium was aspirated, cells were dissolved in 100 uL of DMSO and the optical density was measured at 570 nm with a МultiscanFC plate reader (ThermoScientific, Cambridge, MA, USA). The percentage of surviving cells at each dose was calculated by dividing the optical density of treated cells by the optical density of untreated control (which was taken as 100%). The IC50s were calculated in GraphPad Prism 5.0.
# [2] = tested on: RS4;11 (acute lymphoblastic leukemia); experiment: MTT cytotoxicity, RS4;11; assay type: cell-based; settings: Homo sapiens; RS4;11, MTT, 72 h
# Text: as §1, §2
# [3] = tested on: MDA-MB231 (mammary adenocarcinoma); experiment: MTT cytotoxicity, MDA-MB231; assay type: cell-based; settings: Homo sapiens, MDA-MB-231, 72 h
# Text: as §1, §2
# JNK3 = JNK3 (Homo sapiens, UniProt P53779); experiment: JNK3 kinase selectivity; assay type: biochemical; settings: Mean ± SEM
# [4] = tested on: HL-60 (acute promyelocytic leukemia); experiment: MTT cytotoxicity, HL-60; assay type: cell-based; settings: Homo sapiens; HL-60, MTT, 72 h
# Text: as §1, §2
# CYP2C19 = CYP2C19 (Homo sapiens, UniProt P33261); experiment: CYP2C19 inhibition; assay type: in vitro ADME; settings: Mean ± SEM
# [5] = tested on: A-549 (lung adenocarcinoma); experiment: MTT cytotoxicity, A-549; assay type: cell-based; settings: Homo sapiens, A549; A-549, MTT, 72 h
# Text: as §1, §2
# [6] = tested on: BxPC3 (pancreatic adenocarcinoma); experiment: MTT cytotoxicity, BxPC3; assay type: cell-based; settings: Homo sapiens, BXPC-3, 72 h
# Text: as §1, §2
# [7] = tested on: A431 (epidermoid carcinoma); experiment: MTT cytotoxicity, A431; assay type: cell-based; settings: Homo sapiens, A-431, 72 h
# Text: as §1, §2
# CYP 2C9 = CYP 2C9 (Homo sapiens, UniProt P11712); experiment: CYP 2C9 inhibition; assay type: in vitro ADME; settings: Mean ± SEM
# MTT cytotoxicity, MEF WT = assay type: cell-based; settings: mouse
# Text: as §1, §2
# Aurora A = target: T1, Aurora A (Homo sapiens, UniProt O14965); experiment: Aurora A kinase inhibition (biochemical assay); settings: Table 2; Mean ± SEM, four repeats; read-out: Aurora A kinase inhibition IC50
# T1 sequence (O14965 1-403): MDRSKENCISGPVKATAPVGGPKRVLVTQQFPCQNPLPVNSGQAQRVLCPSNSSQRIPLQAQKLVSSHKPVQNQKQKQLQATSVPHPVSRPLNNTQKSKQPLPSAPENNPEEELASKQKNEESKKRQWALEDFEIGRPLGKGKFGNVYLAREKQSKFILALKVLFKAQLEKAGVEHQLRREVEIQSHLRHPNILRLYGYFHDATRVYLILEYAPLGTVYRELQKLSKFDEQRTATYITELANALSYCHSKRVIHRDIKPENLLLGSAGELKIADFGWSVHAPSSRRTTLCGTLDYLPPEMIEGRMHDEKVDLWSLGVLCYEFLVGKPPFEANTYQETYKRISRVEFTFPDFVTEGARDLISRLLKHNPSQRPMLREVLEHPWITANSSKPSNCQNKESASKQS
# MTT cytotoxicity, HFB = assay type: cell-based; settings: human, human primary fibroblasts (HFB)
# Text: as §1, §2
# [8] = tested on: Colo-320 (colon carcinoma); experiment: MTT cytotoxicity, Colo-320; assay type: cell-based; settings: Homo sapiens; Colo-320, MTT, 72 h
# Text: as §1, §2
# [9] = tested on: MDA-MB-453 (mammary adenocarcinoma); experiment: MTT cytotoxicity, MDA-MB-453; assay type: cell-based; settings: Homo sapiens; MDA-MB-453, MTT, 72 h
# Text: as §1, §2
# [10] = tested on: H1299 (lung adenocarcinoma); experiment: MTT cytotoxicity, H1299; assay type: cell-based; settings: Homo sapiens, NCI-H1299, 72 h
# Text: as §1, §2
# [11] = MTT cytotoxicity, MEFs Dko; assay type: cell-based; settings: mouse, MEFs Dko (bax−/−bak−/−)
# Text: as §1, §2
# Aurora B = Aurora B (Homo sapiens, UniProt Q96GD4); experiment: Aurora B kinase inhibition; assay type: biochemical; settings: Table 3; Mean ± SEM
# [12] = tested on: H23 (lung adenocarcinoma); experiment: MTT cytotoxicity, H23; assay type: cell-based; settings: 72 h
# Text: as §1, §2
# [13] = Solubility (nephelometry); assay type: physicochemical; settings: kinetic from dmso stock
# GSK-3 = GSK-3 kinase selectivity; assay type: biochemical; settings: Mean ± SEM
# [14] = tested on: HCT-116 (colon carcinoma); experiment: MTT cytotoxicity, HCT-116; assay type: cell-based; settings: Homo sapiens; HCT-116, MTT, 72 h
# Text: as §1, §2
# RON = RON (Homo sapiens, UniProt Q04912); experiment: RON kinase selectivity; assay type: biochemical; settings: Mean ± SEM
# CSK = CSK (Homo sapiens, UniProt P41240); experiment: CSK kinase selectivity; assay type: biochemical; settings: Mean ± SEM
# EPHA2 = EPHA2 (Homo sapiens, UniProt P29317); experiment: EPHA2 kinase selectivity; assay type: biochemical; settings: Mean ± SEM
# LYN = LYN (Homo sapiens, UniProt P07948); experiment: LYN kinase selectivity; assay type: biochemical; settings: Mean ± SEM
# c-Kit = c-Kit (Homo sapiens, UniProt P10721); experiment: c-Kit kinase selectivity; assay type: biochemical; settings: Mean ± SEM
# Sequence of c-Kit (P10721 26-976): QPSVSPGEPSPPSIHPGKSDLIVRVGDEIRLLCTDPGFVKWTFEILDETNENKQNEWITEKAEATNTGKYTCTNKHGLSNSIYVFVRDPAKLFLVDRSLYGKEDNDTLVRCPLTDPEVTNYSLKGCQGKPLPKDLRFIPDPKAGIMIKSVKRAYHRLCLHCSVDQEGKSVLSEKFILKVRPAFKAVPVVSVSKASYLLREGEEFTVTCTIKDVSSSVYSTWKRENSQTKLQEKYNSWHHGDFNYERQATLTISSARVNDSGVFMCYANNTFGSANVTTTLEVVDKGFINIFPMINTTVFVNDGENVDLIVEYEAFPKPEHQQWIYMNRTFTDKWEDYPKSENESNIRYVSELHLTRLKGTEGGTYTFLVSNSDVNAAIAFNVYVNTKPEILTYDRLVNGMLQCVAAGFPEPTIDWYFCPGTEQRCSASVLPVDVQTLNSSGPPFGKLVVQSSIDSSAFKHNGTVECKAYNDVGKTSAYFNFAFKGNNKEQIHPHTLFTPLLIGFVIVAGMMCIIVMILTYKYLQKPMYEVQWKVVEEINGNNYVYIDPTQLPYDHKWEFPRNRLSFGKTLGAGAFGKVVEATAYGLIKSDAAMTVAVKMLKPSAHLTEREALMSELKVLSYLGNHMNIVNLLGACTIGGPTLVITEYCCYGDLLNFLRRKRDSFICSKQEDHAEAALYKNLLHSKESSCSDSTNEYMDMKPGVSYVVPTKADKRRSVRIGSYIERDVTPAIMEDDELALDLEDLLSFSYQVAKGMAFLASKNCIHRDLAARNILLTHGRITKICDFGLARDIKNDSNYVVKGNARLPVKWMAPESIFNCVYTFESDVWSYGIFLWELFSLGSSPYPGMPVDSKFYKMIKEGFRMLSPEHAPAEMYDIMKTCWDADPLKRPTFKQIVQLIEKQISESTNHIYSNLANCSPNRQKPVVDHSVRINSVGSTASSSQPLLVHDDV
# Sequence of JNK3 (P53779 whole entry, species assumed): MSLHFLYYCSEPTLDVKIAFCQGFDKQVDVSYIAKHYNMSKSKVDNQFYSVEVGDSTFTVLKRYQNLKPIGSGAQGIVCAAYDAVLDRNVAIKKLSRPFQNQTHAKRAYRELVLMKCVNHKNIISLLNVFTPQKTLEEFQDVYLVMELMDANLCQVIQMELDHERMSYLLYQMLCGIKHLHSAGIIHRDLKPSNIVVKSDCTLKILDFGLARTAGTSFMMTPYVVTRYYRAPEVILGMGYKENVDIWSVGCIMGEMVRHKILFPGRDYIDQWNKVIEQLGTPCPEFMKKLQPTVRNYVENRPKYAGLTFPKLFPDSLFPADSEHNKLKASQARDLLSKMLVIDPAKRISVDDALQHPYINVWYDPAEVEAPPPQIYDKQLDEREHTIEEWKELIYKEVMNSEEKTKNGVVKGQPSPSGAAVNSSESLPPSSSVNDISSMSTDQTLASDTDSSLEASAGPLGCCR
# Sequence of Aurora B (Q96GD4 whole entry): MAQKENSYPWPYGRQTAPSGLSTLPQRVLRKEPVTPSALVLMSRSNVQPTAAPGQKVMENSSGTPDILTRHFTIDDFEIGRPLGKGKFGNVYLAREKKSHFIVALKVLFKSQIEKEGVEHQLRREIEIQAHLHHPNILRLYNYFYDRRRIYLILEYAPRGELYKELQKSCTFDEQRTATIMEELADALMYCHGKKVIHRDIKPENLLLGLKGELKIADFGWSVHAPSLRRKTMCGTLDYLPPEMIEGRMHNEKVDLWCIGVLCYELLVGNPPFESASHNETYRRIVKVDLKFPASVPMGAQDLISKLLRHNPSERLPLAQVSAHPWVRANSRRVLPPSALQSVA
# Sequence of CYP 2C9 (P11712 whole entry): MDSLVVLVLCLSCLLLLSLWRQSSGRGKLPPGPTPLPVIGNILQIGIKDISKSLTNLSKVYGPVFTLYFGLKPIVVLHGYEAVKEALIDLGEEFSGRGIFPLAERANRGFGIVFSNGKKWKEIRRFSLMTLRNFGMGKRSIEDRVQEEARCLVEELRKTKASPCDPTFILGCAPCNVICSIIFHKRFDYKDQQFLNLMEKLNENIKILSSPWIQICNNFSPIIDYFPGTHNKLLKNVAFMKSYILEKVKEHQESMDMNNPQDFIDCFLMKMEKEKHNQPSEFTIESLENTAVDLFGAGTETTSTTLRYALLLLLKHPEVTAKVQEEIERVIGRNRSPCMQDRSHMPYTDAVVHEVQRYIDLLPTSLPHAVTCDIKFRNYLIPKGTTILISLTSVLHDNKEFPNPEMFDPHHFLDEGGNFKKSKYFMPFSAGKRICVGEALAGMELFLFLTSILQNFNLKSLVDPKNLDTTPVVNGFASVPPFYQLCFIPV
# Sequence of CYP2C19 (P33261 whole entry): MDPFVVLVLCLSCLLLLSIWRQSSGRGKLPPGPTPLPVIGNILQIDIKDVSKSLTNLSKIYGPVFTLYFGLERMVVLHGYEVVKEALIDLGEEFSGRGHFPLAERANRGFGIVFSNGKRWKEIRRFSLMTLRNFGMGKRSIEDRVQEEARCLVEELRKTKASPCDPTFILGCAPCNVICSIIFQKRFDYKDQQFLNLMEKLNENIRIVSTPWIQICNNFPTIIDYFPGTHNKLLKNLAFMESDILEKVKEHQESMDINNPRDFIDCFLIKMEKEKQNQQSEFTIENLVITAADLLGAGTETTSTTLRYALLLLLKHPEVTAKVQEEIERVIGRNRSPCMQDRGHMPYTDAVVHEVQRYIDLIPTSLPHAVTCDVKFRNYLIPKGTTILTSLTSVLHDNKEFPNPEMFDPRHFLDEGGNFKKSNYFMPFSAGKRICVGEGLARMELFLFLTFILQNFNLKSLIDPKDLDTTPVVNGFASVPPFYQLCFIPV
# Sequence of CYP3A4 (P08684 whole entry): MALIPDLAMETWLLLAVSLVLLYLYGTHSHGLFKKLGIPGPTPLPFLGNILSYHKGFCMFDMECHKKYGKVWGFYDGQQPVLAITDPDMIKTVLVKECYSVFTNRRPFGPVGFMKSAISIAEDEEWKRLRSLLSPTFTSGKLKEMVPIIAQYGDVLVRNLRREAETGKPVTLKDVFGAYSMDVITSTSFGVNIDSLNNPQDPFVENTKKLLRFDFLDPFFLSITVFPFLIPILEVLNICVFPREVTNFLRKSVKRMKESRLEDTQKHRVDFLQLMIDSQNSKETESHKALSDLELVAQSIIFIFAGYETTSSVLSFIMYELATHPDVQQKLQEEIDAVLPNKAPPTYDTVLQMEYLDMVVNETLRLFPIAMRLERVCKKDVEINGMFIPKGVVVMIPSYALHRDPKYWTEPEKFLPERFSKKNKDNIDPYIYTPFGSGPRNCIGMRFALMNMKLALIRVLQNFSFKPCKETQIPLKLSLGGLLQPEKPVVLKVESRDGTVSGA
# Sequence of EPHA2 (P29317 24-976, species assumed): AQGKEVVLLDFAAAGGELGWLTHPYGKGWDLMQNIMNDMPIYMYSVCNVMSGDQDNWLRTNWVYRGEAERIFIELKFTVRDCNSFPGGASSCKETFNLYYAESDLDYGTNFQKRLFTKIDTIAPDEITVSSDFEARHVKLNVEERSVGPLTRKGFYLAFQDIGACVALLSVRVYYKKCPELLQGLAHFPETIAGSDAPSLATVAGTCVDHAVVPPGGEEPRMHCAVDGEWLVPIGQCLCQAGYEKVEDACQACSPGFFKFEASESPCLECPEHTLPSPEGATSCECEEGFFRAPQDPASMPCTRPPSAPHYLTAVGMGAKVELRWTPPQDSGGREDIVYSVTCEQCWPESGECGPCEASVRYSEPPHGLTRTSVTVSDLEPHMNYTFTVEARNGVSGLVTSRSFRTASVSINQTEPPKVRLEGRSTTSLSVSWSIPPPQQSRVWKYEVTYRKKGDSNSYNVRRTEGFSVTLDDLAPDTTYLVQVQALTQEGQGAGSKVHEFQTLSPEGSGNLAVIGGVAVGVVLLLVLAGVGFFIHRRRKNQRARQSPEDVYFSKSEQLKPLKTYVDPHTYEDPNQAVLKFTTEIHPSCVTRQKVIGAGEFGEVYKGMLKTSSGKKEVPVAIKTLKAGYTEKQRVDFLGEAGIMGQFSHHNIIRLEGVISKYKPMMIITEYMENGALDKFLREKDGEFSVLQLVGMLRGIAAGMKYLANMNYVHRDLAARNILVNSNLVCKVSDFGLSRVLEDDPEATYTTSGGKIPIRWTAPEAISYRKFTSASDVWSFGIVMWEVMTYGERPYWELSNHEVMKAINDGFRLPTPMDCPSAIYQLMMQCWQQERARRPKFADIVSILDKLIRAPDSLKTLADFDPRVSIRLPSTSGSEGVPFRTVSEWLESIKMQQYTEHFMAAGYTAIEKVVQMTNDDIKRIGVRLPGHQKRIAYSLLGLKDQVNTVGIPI
# Sequence of LYN (P07948 whole entry, species assumed): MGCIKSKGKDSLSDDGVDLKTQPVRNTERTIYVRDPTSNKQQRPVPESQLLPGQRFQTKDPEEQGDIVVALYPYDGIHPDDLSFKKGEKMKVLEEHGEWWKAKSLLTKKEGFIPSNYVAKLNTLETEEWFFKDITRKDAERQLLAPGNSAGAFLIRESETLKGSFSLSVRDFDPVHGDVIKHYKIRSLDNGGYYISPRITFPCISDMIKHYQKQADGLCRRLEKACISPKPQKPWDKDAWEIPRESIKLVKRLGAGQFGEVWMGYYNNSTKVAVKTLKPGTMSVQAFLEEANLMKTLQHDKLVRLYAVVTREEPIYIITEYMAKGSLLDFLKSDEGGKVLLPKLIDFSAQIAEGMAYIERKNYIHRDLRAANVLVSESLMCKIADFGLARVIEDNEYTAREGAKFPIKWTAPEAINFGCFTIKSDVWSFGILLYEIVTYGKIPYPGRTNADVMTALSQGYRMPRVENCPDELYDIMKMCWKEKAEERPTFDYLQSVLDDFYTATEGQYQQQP
SMILES,IC50 (Aurora A) [µM],melting point [°C],IC50 [1] [µM],IC50 [2] [µM],IC50 [3] [µM],IC50 (JNK3) [µM],IC50 [4] [µM],IC50 [5] [µM],IC50 [6] [µM],IC50 [7] [µM],"IC50 at 48 h (MTT cytotoxicity, MEF WT) [µM]","IC50 at 72 h (MTT cytotoxicity, HFB) [µM]",IC50 [8] [µM],IC50 [9] [µM],IC50 [10] [µM],IC50 at 48 h [11] [µM],IC50 (Aurora B) [µM],IC50 [12] [µM],solubility [13] [µg/mL],IC50 [14] [µM],also measured
"Cc1cc(Nc2ccnc(CC3CCN(C(=O)c4cccc(Cl)c4F)CC3)n2)[nH]n1 [Compound 16, (3-Chloro-2-fluoro-phenyl)-{4-[4-(5-methyl-2H-pyrazol-3-ylamino)-pyrimidin-2-ylmethyl]-piperidin-1-yl}-methanone]",0.0035 ± 0.00029,–,8.3 ± 0.8,0.3 ± 0.02,> 50,0.572 ± 0.0561,> 50,8.8 ± 0.9,8.1 ± 0.8,9 ± 1,0.9 ± 0.1,3.3 ± 0.3,1.2 ± 0.03,12 ± 1.2,1.5 ± 0.12,4.5 ± 0.5,4.182 ± 0.0401,> 50,> 100,4.2 ± 0.4,IC50 (CYP3A4): 0.596 ± 0.0601 µM; IC50 (CYP2C19): 0.966 ± 0.0941 µM; IC50 (CYP 2C9): 0.327 ± 0.033 µM; IC50 (GSK-3): 0.293 ± 0.0312 µM
"Cc1cc(Nc2ncc(C)s2)nc(CC2CCN(C(=O)c3cccc(Cl)c3F)CC2)n1 [Compound 11, (3-Chloro-2-fluoro-phenyl)-{4-[4-methyl-6-(5-methyl-thiazol-2-ylamino)-pyrimidin-2-ylmethyl]-piperidin-1-yl}-methanone]",0.012 ± 0.0011,211 to 213,3.2 ± 0.2,0.5 ± 0.04,7.3 ± 0.8,–,5.4 ± 0.3,5.6 ± 0.5,2 ± 0.021,4.6 ± 0.5,1 ± 0.2,3.6 ± 0.4,0.8 ± 0.09,10 ± 1.2,1.7 ± 0.2,3.1 ± 0.32,–,3.9 ± 0.15,–,3 ± 0.4,–
"Cc1cc(Nc2ccn[nH]2)nc(CC2CCN(C(=O)c3cccc(Cl)c3F)CC2)n1 [Compound 14, (3-Chloro-2-fluoro-phenyl)-{4-[4-methyl-6-(2H-pyrazol-3-ylamino)-pyrimidin-2-ylmethyl]-piperidin-1-yl}-methanone]",0.0053 ± 0.00046,125 to 128,–,–,–,1.63 ± 0.167,–,–,–,–,–,–,–,–,–,–,18.3,–,> 100,–,IC50 (CYP3A4): 15.1 ± 0.151 µM; IC50 (CYP2C19): 9.6 ± 0.96 µM; IC50 (CYP 2C9): 3.9 ± 0.401 µM; IC50 (c-Kit): 21 µM; IC50 (GSK-3): 0.109 ± 0.0121 µM

# Continued, in another order:
IC50 (Aurora A) [µM],melting point [°C],SMILES,IC50 [1] [µM],IC50 [2] [µM],IC50 [3] [µM],IC50 (JNK3) [µM],IC50 [4] [µM],IC50 [5] [µM],IC50 [6] [µM],IC50 [7] [µM],"IC50 at 48 h (MTT cytotoxicity, MEF WT) [µM]","IC50 at 72 h (MTT cytotoxicity, HFB) [µM]",IC50 [8] [µM],IC50 [9] [µM],IC50 [10] [µM],IC50 at 48 h [11] [µM],IC50 (Aurora B) [µM],IC50 [12] [µM],solubility [13] [µg/mL],IC50 [14] [µM],also measured
0.0041 ± 0.00035,221 to 223,"Cc1cc(Nc2ncc(Cl)s2)nc(CC2CCN(C(=O)c3cccc(Cl)c3F)CC2)n1 [Compound 13, (3-Chloro-2-fluoro-phenyl)-{4-[4-(5-chloro-thiazol-2-ylamino)-6-methyl-pyrimidin-2-ylmethyl]-piperidin-1-yl}-methanone]",3.9 ± 0.4,1.1 ± 0.11,10.5 ± 1.1,0.0852 ± 0.0091,20.9 ± 2.1,5.1 ± 0.4,2.4 ± 0.14,6.1 ± 0.7,2.5 ± 0.3,2.8 ± 0.3,1 ± 0.11,8 ± 0.79,1.1 ± 0.1,3.6 ± 0.3,0.232 ± 0.0241,1.2 ± 0.09,< 10,4.4 ± 0.5,IC50 (RON): 0.97 ± 0.101 µM; IC50 (CSK): 9.5 ± 0.101 µM; IC50 (EPHA2): 9 ± 0.985 µM; IC50 (LYN): 3.27 ± 0.324 µM; IC50 (c-Kit): 17 µM
0.0175 ± 0.0021,120 to 122,"Cc1cc(Nc2cccc(CC3CCN(C(=O)c4cccc(Cl)c4F)CC3)n2)[nH]n1 [Compound 15, (3-Chloro-2-fluoro-phenyl)-{4-[6-(5-methyl-2H-pyrazol-3-ylamino)-pyridin-2-ylmethyl]-piperidin-1-yl}-Methanone]",9.7 ± 1,0.1 ± 0.02,> 50,–,38.8 ± 3.2,5.7 ± 0.6,7.2 ± 0.6,6.8 ± 0.7,0.9 ± 0.08,3 ± 0.2,1 ± 0.12,5.7 ± 0.6,3.7 ± 0.3,3 ± 0.2,–,> 50,–,2.8 ± 0.3,–
0.0351 ± 0.00036,207 to 209,"Cc1cc(Nc2nccs2)nc(CC2CCN(C(=O)c3cccc(Cl)c3F)CC2)n1 [Compound 12, (3-Chloro-2-fluoro-phenyl)-{4-[4-methyl-6-(thiazol-2-ylamino)-pyrimidin-2-ylmethyl]-piperidin-1-yl}-methanone]",6 ± 0.7,1.5 ± 0.2,28.2 ± 0.3,–,39.8 ± 3.4,10 ± 1.2,6 ± 0.59,10.2 ± 1.2,5.8 ± 0.5,3.8 ± 0.4,2 ± 0.15,16.3 ± 1.7,5 ± 0.4,11.8 ± 1.2,–,6.8 ± 0.5,–,6.5 ± 0.7,–
